Assay results taken from ChEMBL document CHEMBL1153753, “Structure-activity relationships and mechanism of action of antitumor bis 8-hydroxyquinoline substituted benzylamines” (Eur J Med Chem, 2010).

System: not listed separately
Test: Antiproliferative activity against human U87 cells expressing GFP after 3 days by flash-cytometry
Type: functional, U-87MG ATCC
Conditions: U-87 MG, 72 h, read-out: ED50 (the source's name)

Structure (SMILES) | EC50 [nM]
Oc1ccc(CN(Cc2ccccc2)Cc2ccccc2)c2cccnc12 | 5000
Oc1ccc(CN(Cc2cccs2)Cc2ccc(O)c3ncccc23)c2cccnc12 | < 200
Oc1ccc(CN(Cc2ccc(O)c3ncccc23)CC2CCCO2)c2cccnc12 (centres undefined) | 5000
Cc1ccc(C(=O)NCc2ccc(O)c3ncccc23)cc1 | 10000
Oc1ccc(CN(Cc2ccc(C(F)(F)F)cc2)Cc2cccc3ncccc23)c2cccnc12 | > 10000
Oc1ccc(CNCc2cccc(C(F)(F)F)c2)c2cccnc12 | 180
Oc1ccc(CN(Cc2cccc(C(F)(F)F)c2)Cc2ccc(O)c3ncccc23)c2cccnc12 | 2000

System: not listed separately
Test: Cytotoxicity against human Hs683 cells by MTT assay
Type: functional, cell-based
Conditions: Hs 683

Structure (SMILES) | IC50 [nM]
O=C(O)C1CCC(CN(Cc2ccc(O)c3ncccc23)Cc2ccc(O)c3ncccc23)CC1 (centres undefined) | 2860
Oc1ccc(CN(Cc2cccs2)Cc2ccc(O)c3ncccc23)c2cccnc12 | 35
Oc1ccc(CN(Cc2cccc(C(F)(F)F)c2)Cc2ccc(O)c3ncccc23)c2cccnc12 | 36

System: T98G
Test: Cytotoxicity against human T98G cells by MTT assay
Type: functional, cell-based
Conditions: not given

Structure (SMILES) | IC50 [nM]
O=C(O)C1CCC(CN(Cc2ccc(O)c3ncccc23)Cc2ccc(O)c3ncccc23)CC1 (centres undefined) | 9760
Oc1ccc(CN(Cc2cccs2)Cc2ccc(O)c3ncccc23)c2cccnc12 | 88
Oc1ccc(CN(Cc2cccc(C(F)(F)F)c2)Cc2ccc(O)c3ncccc23)c2cccnc12 | 57

System: not listed separately
Test: Cytotoxicity against human U373 cells by MTT assay
Type: functional, cell-based, U-373MG ATCC
Conditions: U373 MG

Structure (SMILES) | IC50 [nM]
O=C(O)C1CCC(CN(Cc2ccc(O)c3ncccc23)Cc2ccc(O)c3ncccc23)CC1 (centres undefined) | 3730
Oc1ccc(CN(Cc2cccs2)Cc2ccc(O)c3ncccc23)c2cccnc12 | 85
Oc1ccc(CN(Cc2cccc(C(F)(F)F)c2)Cc2ccc(O)c3ncccc23)c2cccnc12 | 65

System: BXPC-3
Test: Cytotoxicity against human BxPC3 cells by MTT assay
Type: functional, cell-based
Conditions: not given

Structure (SMILES) | IC50 [nM]
O=C(O)C1CCC(CN(Cc2ccc(O)c3ncccc23)Cc2ccc(O)c3ncccc23)CC1 (centres undefined) | 4340
Oc1ccc(CN(Cc2cccs2)Cc2ccc(O)c3ncccc23)c2cccnc12 | 89
Oc1ccc(CN(Cc2cccc(C(F)(F)F)c2)Cc2ccc(O)c3ncccc23)c2cccnc12 | 167

System: LoVo
Test: Cytotoxicity against human LoVo cells by MTT assay
Type: functional, cell-based
Conditions: not given

Structure (SMILES) | IC50 [nM]
O=C(O)C1CCC(CN(Cc2ccc(O)c3ncccc23)Cc2ccc(O)c3ncccc23)CC1 (centres undefined) | 422
Oc1ccc(CN(Cc2cccs2)Cc2ccc(O)c3ncccc23)c2cccnc12 | 40
Oc1ccc(CN(Cc2cccc(C(F)(F)F)c2)Cc2ccc(O)c3ncccc23)c2cccnc12 | 94

System: A549
Test: Cytotoxicity against human A549 cells by MTT assay
Type: functional, cell-based
Conditions: not given

Structure (SMILES) | IC50 [nM]
O=C(O)C1CCC(CN(Cc2ccc(O)c3ncccc23)Cc2ccc(O)c3ncccc23)CC1 (centres undefined) | 661
Oc1ccc(CN(Cc2cccs2)Cc2ccc(O)c3ncccc23)c2cccnc12 | 27
Oc1ccc(CN(Cc2cccc(C(F)(F)F)c2)Cc2ccc(O)c3ncccc23)c2cccnc12 | 38

System: PC-3
Test: Cytotoxicity against human PC3 cells by MTT assay
Type: functional, cell-based
Conditions: not given

Structure (SMILES) | IC50 [nM]
O=C(O)C1CCC(CN(Cc2ccc(O)c3ncccc23)Cc2ccc(O)c3ncccc23)CC1 (centres undefined) | 9940
Oc1ccc(CN(Cc2cccs2)Cc2ccc(O)c3ncccc23)c2cccnc12 | 44
Oc1ccc(CN(Cc2cccc(C(F)(F)F)c2)Cc2ccc(O)c3ncccc23)c2cccnc12 | 37

System: not listed separately
Test: Cytotoxicity against human KB3 cells after 72 hrs by MTS assay
Type: functional
Conditions: KB3, 72 h

Structure (SMILES) | CC50 [nM]
COc1ccc(CN(Cc2ccc(C(F)(F)F)cc2)Cc2ccc(O)c3ncccc23)c2cccnc12 | > 10000
CC(C)(C)OC(=O)N(Cc1cc(C(F)(F)F)cc(C(F)(F)F)c1)Cc1ccc(O)c2ncccc12 | 1000
Oc1ccc(CN(Cc2ccc(OC(F)(F)F)cc2)Cc2ccc(O)c3ncccc23)c2cccnc12 | 100
Oc1ccc(CNCc2ccccc2)c2cccnc12 | > 1000
O=C(O)C1CCC(CN(Cc2ccc(O)c3ncccc23)Cc2ccc(O)c3ncccc23)CC1 (centres undefined) | 1100
Oc1ccc(CN(CCc2ccccn2)Cc2ccc(O)c3ncccc23)c2cccnc12 | > 10000
Oc1ccc(CN(Cc2ccccc2)Cc2ccccc2)c2cccnc12 | 1000
Oc1ccc(CN(Cc2cccs2)Cc2ccc(O)c3ncccc23)c2cccnc12 | 2
Oc1ccc(CN(Cc2ccc(O)c3ncccc23)CC2CCCO2)c2cccnc12 (centres undefined) | 10000
Cc1ccc(C(=O)NCc2ccc(O)c3ncccc23)cc1 | 1000
Oc1ccc(CN(Cc2ccc(C(F)(F)F)cc2)Cc2cccc3ncccc23)c2cccnc12 | 10000
Oc1ccc(CNCc2cccc(C(F)(F)F)c2)c2cccnc12 | 200
Oc1ccc(CN(Cc2cccc(C(F)(F)F)c2)Cc2ccc(O)c3ncccc23)c2cccnc12 | 2200

System: MCF7
Test: Cytotoxicity against human MCF7 cells by MTT assay
Type: functional, cell-based
Conditions: not given

Structure (SMILES) | IC50 [nM]
O=C(O)C1CCC(CN(Cc2ccc(O)c3ncccc23)Cc2ccc(O)c3ncccc23)CC1 (centres undefined) | 9460
Oc1ccc(CN(Cc2cccs2)Cc2ccc(O)c3ncccc23)c2cccnc12 | 35
Oc1ccc(CN(Cc2cccc(C(F)(F)F)c2)Cc2ccc(O)c3ncccc23)c2cccnc12 | 30
